Results published in US10221172B2, “Benzothiazole and benzisothiazole-substituted compounds as mGluR4 allosteric potentiators, compositions, and methods of treating neurological dysfunction” (Vanderbilt University, priority 2015, dated 2019).

Target: human mGluR4 (Homo sapiens (Human), UniProt Q14833)
Assay: mGluR4 potentiation assay, CHO cells transfected with human mGluR4, Ca2+-sensitive dye, EC20 agonist
Assay type: cell-based
Conditions: potentiation of mGluR4
Protocol: The disclosed compounds and compositions can be evaluated for their ability to act as a potentiator of metabotropic glutamate receptor activity, in particular mGluR4 activity, by any suitable known methodology known in the art. For example, Chinese Hamster Ovary (CHO) cells transfected with human mGluR4 or HEK cells co-transfected with rat mGluR4 and the G-protein regulated Inwardly Rectifying Potassium channel (GIRK) were plated in clear bottom assay plates for assay in a Hamamatsu FDSS Fluorometric Plate Reader. The cells were loaded with either a Ca2+-sensitive fluorescent dye or the thallium responsive dye and the plates were washed and placed into a suitable kinetic plate reader. For human mGluR4 assays, a fluorescence baseline was established for 3-5 seconds, the disclosed compounds were then added to the cells, and the response in cells was measured. Approximately two and a half minutes later, a concentration of mGluR4 orthosteric agonist (e.g. glutamate or L-AP4) eliciting approximately 20% (EC20) of the maximal agonist response was added to the cells, and the response was measured. Two minutes later, a concentration of mGluR4 agonist (e.g. glutamate or L-AP4) eliciting 80% (EC80) of the maximal agonist response was added to the cells, and the response was measured. For rat mGluR4/GIRK experiments, a baseline was established for approximately five seconds, disclosed compounds were added, and either an EC20 or EC80 concentration of agonist was added approximately two and one half minutes later. Potentiation of the agonist response of mGluR4 by the disclosed compounds was observed as an increase in response to the EC20 concentration of agonist in the presence of compound compared to the response to agonist in the absence of compound. Similarly, antagonism of the agonist response of mGluR4 by the disclosed compounds was observed as a decrease in response to the EC80 concentration of agonist in the presence of compound compared to the response to agonist in the absence of compound.
The above described assay operated in two modes. In the first mode, a range of concentrations of the disclosed compounds are added to cells, followed by a single fixed concentration of agonist. If the compound acts as a potentiatior, an EC50 value for potentiation and a maximum extent of potentiation by the compound at this concentration of agonist is determined by non-linear curve fitting. If the compound acts as a noncompetitive antagonist, an IC50 value is determined by non-linear curve fitting. In the second mode, several fixed concentrations of the disclosed compounds are added to various wells on a plate, followed by a range in concentrations of agonist for each concentration of disclosed compound. The EC50 values for the agonist at each concentration of compound are determined by non-linear curve fitting. A decrease in the EC50 value of the agonist with increasing concentrations of the sample compound (a leftward shift of the agonist concentration-response curve) is an indication of the degree of mGluR4 potentiation at a given concentration of the sample compound. A decrease in the maximal response of the agonist with increasing concentrations of the sample compounds, with or without a rightward shift in agonist potency, is an indication of the degree of noncompetitive antagonism at mGluR4. The second mode also indicates whether the sample compounds also affect the maximum response to mGluR4 to agonists.

[1] = main compound table, species not given
[2] = summary list repeated at the end of the table, species not stated

Sequence of human mGluR4 (Q14833 33-912): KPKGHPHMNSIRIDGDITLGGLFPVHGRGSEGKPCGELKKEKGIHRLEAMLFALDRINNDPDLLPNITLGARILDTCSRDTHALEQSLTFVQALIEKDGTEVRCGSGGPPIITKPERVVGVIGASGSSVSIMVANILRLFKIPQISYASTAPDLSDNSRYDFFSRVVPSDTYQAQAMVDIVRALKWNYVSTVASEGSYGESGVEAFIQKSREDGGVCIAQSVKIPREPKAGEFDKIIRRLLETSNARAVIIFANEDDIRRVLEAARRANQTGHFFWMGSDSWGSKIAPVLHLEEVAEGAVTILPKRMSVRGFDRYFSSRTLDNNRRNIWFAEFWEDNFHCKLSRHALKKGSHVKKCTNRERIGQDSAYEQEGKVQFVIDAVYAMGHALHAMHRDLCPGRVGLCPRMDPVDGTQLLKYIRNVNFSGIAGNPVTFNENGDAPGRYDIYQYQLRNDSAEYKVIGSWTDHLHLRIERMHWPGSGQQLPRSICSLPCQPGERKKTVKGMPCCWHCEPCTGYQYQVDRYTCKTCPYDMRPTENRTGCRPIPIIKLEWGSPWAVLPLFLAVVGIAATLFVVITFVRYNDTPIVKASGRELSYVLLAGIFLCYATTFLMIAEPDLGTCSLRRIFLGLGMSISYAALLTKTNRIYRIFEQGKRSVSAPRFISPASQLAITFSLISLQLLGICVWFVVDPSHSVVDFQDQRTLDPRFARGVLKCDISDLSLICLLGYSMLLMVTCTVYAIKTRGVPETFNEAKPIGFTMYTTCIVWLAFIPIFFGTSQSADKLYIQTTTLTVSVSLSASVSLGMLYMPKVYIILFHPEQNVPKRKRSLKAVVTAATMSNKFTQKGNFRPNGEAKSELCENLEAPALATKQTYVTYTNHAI

Row | Compound | EC50 [1] [nM] | EC50 [2] [nM]
1 | c1cnc2c(Nc3cnc4c(CN5CCCC5)nsc4c3)n[nH]c2c1 [Example 58, N-(1H-pyrazolo[4,3-b]pyridin-3-yl)-3-(pyrrolidin-1-ylmethyl) isothiazolo [4,5-b]pyridin-6-amine] | 3740 | 3740
2 | CC(=O)N1CCC(c2nsc3cc(Nc4n[nH]c5nccnc45)ccc23)CC1 [Example 63, 1-(4-(6-((1H-pyrazolo [3,4-b]pyrazin-3-yl)amino)benzo[d]isothiazol-3-yl)piperidin-1-yl)ethan-1-one] | 154 | 154
3 | O=C(C1CC1)N1CCC(c2nsc3cc(Nc4n[nH]c5cccnc45)ccc23)CC1 [Example 71, (4-(6-((1H-pyrazolo [4,3-b]pyridin-3-yl)amino)benzo[d]isothiazol-3-yl)piperidin-1-yl) (cyclopropyl) methanone] | 388 | 388
4 | O=C(C1CCOCC1)N1CCC(c2nsc3cc(Nc4n[nH]c5cccnc45)ccc23)CC1 [Example 72, (4-(6-((1H-pyrazolo [4,3-b]pyridin-3-yl)amino)benzo[d]isothiazol-3-yl)piperidin-1-yl) (tetrahydro-2H-pyran-4-yl)methanone] | 1200 | 1200

Continued by falling EC50 [1], values first:

Row | EC50 [1] [nM] | EC50 [2] [nM] | Compound
5 | 409 | 409 | CC(=O)N1CCC(c2nsc3cc(Nc4n[nH]c5ncccc45)ccc23)CC1 [Example 64, 1-(4-(6-((1H-pyrazolo[3,4-b]pyridin-3-yl)amino)benzo[d]isothiazol-3-yl)piperidin-1-yl)ethan-1-one]
6 | 353 | 353 | C[C@H]1CN(Cc2nsc3cc(Nc4n[nH]c5cccnc45)cnc23)CCO1 [Example 59, (S)-3-((2-methylmorpholino)methyl)-N-(1H-pyrazolo[4,3-b]pyridin-3-yl)isothiazolo[4,5-b] pyridin-6-amine]
7 | 147 | 147 | CC1(C)CN(Cc2nsc3cc(Nc4n[nH]c5cccnc45)cnc23)CCO1 [Example 60]
8 | 101 | 101 | FC1(F)CCCN(Cc2nsc3cc(Nc4n[nH]c5ncccc45)cnc23)C1 [Example 62, 3-((3,3-difluoropiperidin-1-yl)methyl)-N-(1H-pyrazolo[3,4-b]pyridin-3-yl)isothiazolo[4,5-b] pyridin-6-amine]
9 | 55.9 | 55.9 | FC1(F)CCCN(Cc2nsc3cc(Nc4n[nH]c5cccnc45)cnc23)C1 [Example 61, 3-((3,3-difluoropiperidin-1-yl)methyl)-N-(1H-pyrazolo[4,3-b]pyridin-3-yl)isothiazolo[4,5-b] pyridin-6-amine]
